Assay: recombinant barcode read abundance after kanamycin selection (control-corrected) (log10(CPM+1)); higher = more efficient recombination; sequences stand for … in AGTGCAGAGAAAATCGGCCAGTTTTCTCTGCCTGCAGTCCGCATGCCGT…AGATTTATGCAGCGGACTGCCTTTCTCCCAAAGTGATAAACCGGACAGTATCATGGACCGGTTTTCCCGGTAATCCGTATTTGCAAGGTTGGTTTCACT; site = the 11-nt target
How it was run: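 A promoter, a target, a barcode and the first 104 bridge RNA bases under J23119 made up each oligo. Oligos were Gibson-cloned into a vector bearing the other 73 bp and a T7-inducible recombinase, then co-electroporated into E. coli with a donor plasmid and plated in duplicate on chloramphenicol/ampicillin LB agar (control) or chloramphenicol/ampicillin/kanamycin with 0.1 mM IPTG. Recombination efficiency is the averaged, control-corrected counts per million of recombinant-junction barcodes. Reported values are log10(CPM+1).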
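Further: IS621 recombinase and bridge RNA in Escherichia coli cells.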

| Sequence | recombinant barcode read abundance (log10) |
| --- | --- |
| GAGATCCCTTGGGTTCTAACCTGTTGCTG (site GAGATCCCTCA) | 2.37 |
| GAGATCCCTTGGGTTCTAACCTGTTGCTG (site GAGATCCCTTA) | 0.188 |
| GAGATGACTTGGGTTCTAACCTGTTGCGG (site GAGACGACTCG) | 0.0565 |
| GAGATGACTTGGGTTCTAACCTGTTGCGG (site GAGATGACTCC) | 2.29 |
| GAGCAACCTTGGGTTCTAACCTGTTGCCG (site GAGCAACCTCG) | 1.07 |
| GAGCAACCTTGGGTTCTAACCTGTTGCCG (site GAGCCACCTTG) | 0.017 |
| GAGCAGACTTGGGTTCTAACCTGTTGCCT (site GAGCAGACTAG) | 0.931 |
| GAGCAGACTTGGGTTCTAACCTGTTGCCT (site GAGCCGACTAG) | 0.146 |
| GAGCAGACTTGGGTTCTAACCTGTTGCCT (site GAGCGGACTAG) | 0.235 |
| GAGCAGACTTGGGTTCTAACCTGTTGCCT (site GAGCTGACTAG) | 0.631 |
| GAGCCACCTTGGGTTCTAACCTGTTGCCA (site GAGCAACCTCG) | 0.0457 |
| GAGCCACCTTGGGTTCTAACCTGTTGCCA (site GAGCCACCTTG) | 1.02 |
| GAGCGAGCTTGGGTTCTAACCTGTTGCCG (site GAGCGAGCTCA) | 0.199 |
| GAGCGAGCTTGGGTTCTAACCTGTTGCCG (site GAGCGAGCTCC) | 0.582 |
| GAGCGAGCTTGGGTTCTAACCTGTTGCCG (site GAGCGAGCTCG) | 1.11 |
| GAGCGAGCTTGGGTTCTAACCTGTTGCCG (site GAGCGAGCTCT) | 0.308 |
| GAGCGATCTTGGGTTCTAACCTGTTGCGT (site GAGCGATCTAC) | 1.85 |
| GAGCGATCTTGGGTTCTAACCTGTTGCGT (site GAGTGAGCTAC) | 0.0311 |
| GAGCGCTCTTGGGTTCTAACCTGTTGCCT (site GAGCGCTCTAG) | 1.48 |
| GAGCGCTCTTGGGTTCTAACCTGTTGCCT (site GAGTGCTCTAC) | 0.0357 |
| GAGCGCTCTTGGGTTCTAACCTGTTGCTG (site GAGCGCTCTAA) | 0.0574 |
| GAGCGCTCTTGGGTTCTAACCTGTTGCTG (site GAGCGCTCTCA) | 1.05 |

| Sequence | recombinant barcode read abundance (log10) |
| --- | --- |
| GAGCGCTCTTGGGTTCTAACCTGTTGCTG (site GAGCGCTCTGA) | 0.207 |
| GAGCGCTCTTGGGTTCTAACCTGTTGCTG (site GAGCGCTCTTA) | 0.0132 |
| GAGCGGACTTGGGTTCTAACCTGTTGCTA (site GAGCGAGCTTA) | 0.0384 |
| GAGCGGACTTGGGTTCTAACCTGTTGCTA (site GAGCGGACTTA) | 1.83 |
| GAGCGGCCTTGGGTTCTAACCTGTTGCAG (site ATTTAAGCTAG) | 0.224 |
| GAGCGGCCTTGGGTTCTAACCTGTTGCAG (site GAGCGGCCTCT) | 1.72 |
| GAGCTAGCTTGGGTTCTAACCTGTTGCGC (site GAGCTAGCTAC) | 0.109 |
| GAGCTAGCTTGGGTTCTAACCTGTTGCGC (site GAGCTAGCTGC) | 2.29 |
| GAGCTGCCTTGGGTTCTAACCTGTTGCCA (site AGCTAATCTAA) | 0.274 |
| GAGCTGCCTTGGGTTCTAACCTGTTGCCA (site GAGCTGCCTTG) | 1.66 |
| GAGCTTACTTGGGTTCTAACCTGTTGCCT (site GAGCTTACTAG) | 0.618 |
| GAGCTTACTTGGGTTCTAACCTGTTGCCT (site GCGCTTACTAG) | 0.0105 |
| GAGCTTACTTGGGTTCTAACCTGTTGCCT (site GGGCTTACTAG) | 0.299 |
| GAGCTTACTTGGGTTCTAACCTGTTGCCT (site GTGCTTACTAG) | 0.158 |
| GAGGAACCTTGGGTTCTAACCTGTTGCCT (site AAGGAACCTAG) | 1.57 |
| GAGGAACCTTGGGTTCTAACCTGTTGCCT (site CAGGAACCTAG) | 1.28 |
| GAGGAACCTTGGGTTCTAACCTGTTGCCT (site GAGGAACCTAG) | 2.12 |
| GAGGAACCTTGGGTTCTAACCTGTTGCCT (site TAGGAACCTAG) | 1.44 |
| GAGGAAGCTTGGGTTCTAACCTGTTGCCT (site GAGGAAGCTAG) | 1.81 |
| GAGGAAGCTTGGGTTCTAACCTGTTGCCT (site GCGGAAGCTAG) | 0.545 |
| GAGGAAGCTTGGGTTCTAACCTGTTGCCT (site GGGGAAGCTAG) | 0.316 |
| GAGGAAGCTTGGGTTCTAACCTGTTGCCT (site GTGGAAGCTAG) | 0.473 |

| Sequence | recombinant barcode read abundance (log10) |
| --- | --- |
| GAGGACTCTTGGGTTCTAACCTGTTGCCC (site GAGGACTCTAG) | 2 |
| GAGGACTCTTGGGTTCTAACCTGTTGCCC (site GAGGACTCTCG) | 0.136 |
| GAGGACTCTTGGGTTCTAACCTGTTGCCC (site GAGGACTCTGG) | 2.39 |
| GAGGACTCTTGGGTTCTAACCTGTTGCCC (site GAGGACTCTTG) | 0.682 |
| GAGGAGTCTTGGGTTCTAACCTGTTGCCG (site AGAACACCTAA) | 0.0129 |
| GAGGAGTCTTGGGTTCTAACCTGTTGCCG (site GAGGAGTCTCG) | 1.3 |
| GAGGAGTCTTGGGTTCTAACCTGTTGCCT (site GAGAAGTCTAG) | 1.02 |
| GAGGAGTCTTGGGTTCTAACCTGTTGCCT (site GAGCAGTCTAG) | 0.0568 |
| GAGGAGTCTTGGGTTCTAACCTGTTGCCT (site GAGGAGTCTAG) | 2.55 |
| GAGGAGTCTTGGGTTCTAACCTGTTGCCT (site GAGTAGTCTAG) | 0.171 |
| GAGGATCCTTGGGTTCTAACCTGTTGCCT (site GAGGATCCTAG) | 2.12 |
| GAGGATCCTTGGGTTCTAACCTGTTGCCT (site GGGGATCCTAG) | 0.457 |
| GAGGCAACTTGGGTTCTAACCTGTTGCTT (site CACGCAACTAA) | 0 |
| GAGGCAACTTGGGTTCTAACCTGTTGCTT (site GAGGCAACTAA) | 0.0561 |
| GAGGCTCCTTGGGTTCTAACCTGTTGCCG (site GAGGCTCCTAG) | 0.113 |
| GAGGCTCCTTGGGTTCTAACCTGTTGCCG (site GAGGCTCCTCG) | 0.993 |
| GAGGCTCCTTGGGTTCTAACCTGTTGCCG (site GAGGCTCCTGG) | 0.138 |
| GAGGCTCCTTGGGTTCTAACCTGTTGCCG (site GAGGCTCCTTG) | 0.238 |
| GAGGGTACTTGGGTTCTAACCTGTTGCCT (site GAGCATACTAG) | 0.295 |
| GAGGGTACTTGGGTTCTAACCTGTTGCCT (site GAGGGTACTAG) | 1.76 |
| GAGGGTTCTTGGGTTCTAACCTGTTGCAT (site GAGGGTGCTAG) | 0.528 |
| GAGGGTTCTTGGGTTCTAACCTGTTGCAT (site GAGGGTTCTAT) | 2.66 |

| Sequence | recombinant barcode read abundance (log10) |
| --- | --- |
| GAGGTAGCTTGGGTTCTAACCTGTTGCCT (site GAGGTAGCTAG) | 1.18 |
| GAGGTAGCTTGGGTTCTAACCTGTTGCCT (site GATGTATCTAG) | 0.563 |
| GAGGTGCCTTGGGTTCTAACCTGTTGCAG (site ATAACCTCTAG) | 0.174 |
| GAGGTGCCTTGGGTTCTAACCTGTTGCAG (site GAGGTGCCTCT) | 1.44 |
| GAGTAGTCTTGGGTTCTAACCTGTTGCCT (site GAGAAGTCTAG) | 0.0847 |
| GAGTAGTCTTGGGTTCTAACCTGTTGCCT (site GAGCAGTCTAG) | 1.27 |
| GAGTAGTCTTGGGTTCTAACCTGTTGCCT (site GAGGAGTCTAG) | 0.00957 |
| GAGTAGTCTTGGGTTCTAACCTGTTGCCT (site GAGTAGTCTAG) | 2.39 |
| GAGTCTCCTTGGGTTCTAACCTGTTGCGG (site CTTCGGACTAA) | 0.187 |
| GAGTCTCCTTGGGTTCTAACCTGTTGCGG (site GAGTCTCCTCC) | 0.316 |
| GAGTGAGCTTGGGTTCTAACCTGTTGCAT (site GAGAGAGCTAT) | 0.645 |
| GAGTGAGCTTGGGTTCTAACCTGTTGCAT (site GAGCGAGCTAT) | 1.95 |
| GAGTGAGCTTGGGTTCTAACCTGTTGCAT (site GAGGGAGCTAT) | 0.986 |
| GAGTGAGCTTGGGTTCTAACCTGTTGCAT (site GAGTGAGCTAT) | 2.53 |
| GAGTGAGCTTGGGTTCTAACCTGTTGCGT (site GAGCGATCTAC) | 0.689 |
| GAGTGAGCTTGGGTTCTAACCTGTTGCGT (site GAGTGAGCTAC) | 3 |
| GAGTGCTCTTGGGTTCTAACCTGTTGCGT (site GAGCGCTCTAG) | 0.0262 |
| GAGTGCTCTTGGGTTCTAACCTGTTGCGT (site GAGTGCTCTAC) | 2.29 |
| GAGTGGCCTTGGGTTCTAACCTGTTGCCT (site GAGTGGCCTAA) | 0.316 |
| GAGTGGCCTTGGGTTCTAACCTGTTGCCT (site GAGTGGCCTAC) | 0.121 |
